Biological target: Beta-glucuronidase (Escherichia coli (strain K12), UniProt P05804)
Test: Biological Assay
Procedure: Successful drug candidate compounds were subjected to numerous biochemical and cellular assays. Purified bacterial β-glucuronidases were challenged with compounds to determine inhibition properties in a standard, robust activity assay, utilizing p-nitrophenyl glucuronide (PNPG) as the enzymatic substrate. Reactions (n=3/inhibitor concentration) were conducted in a 96-well assay, consisting of PNPG substrate (12 concentrations between 25 μM and 5 mM), inhibitor solution (8 concentrations between 0.1 nM and 100 μM), and 5 nM enzyme. […] Purified bovine liver and human β-glucuronidase were dissolved in a reaction mixture containing 1 μM enzyme and 1 mM PNPG as substrate.

Beta-glucuronidase, sequence (P05804 whole entry): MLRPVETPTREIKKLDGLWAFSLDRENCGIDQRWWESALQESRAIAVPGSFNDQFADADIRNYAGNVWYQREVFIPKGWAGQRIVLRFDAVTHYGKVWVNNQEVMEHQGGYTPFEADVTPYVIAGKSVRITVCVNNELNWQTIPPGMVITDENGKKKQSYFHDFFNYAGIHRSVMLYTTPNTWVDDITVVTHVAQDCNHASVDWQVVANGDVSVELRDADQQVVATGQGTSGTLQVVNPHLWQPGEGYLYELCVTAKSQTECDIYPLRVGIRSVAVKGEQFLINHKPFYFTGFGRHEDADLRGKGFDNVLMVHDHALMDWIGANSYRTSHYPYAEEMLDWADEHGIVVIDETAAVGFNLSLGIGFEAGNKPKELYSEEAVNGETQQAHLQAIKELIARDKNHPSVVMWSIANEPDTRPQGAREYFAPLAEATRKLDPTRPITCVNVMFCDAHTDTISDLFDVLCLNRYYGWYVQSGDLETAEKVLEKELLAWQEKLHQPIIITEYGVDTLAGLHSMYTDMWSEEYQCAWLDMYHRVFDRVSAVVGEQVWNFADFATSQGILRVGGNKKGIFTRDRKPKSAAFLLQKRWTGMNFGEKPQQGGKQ

Compound	IC50 [µM]
COc1cccc(NC(=O)N(CCO)Cc2cc3cc(C)cc(C)c3[nH]c2=O)c1 [US12017994, Ref #36']	3.71
Cc1cc(C)c2[nH]c(=O)c(CN(CCO)C(=O)Nc3ccc(F)cc3C#C[Si](C)(C)C)cc2c1 [US12017994, Ref #44']	19.1

From BindingDB's records for patent US12017994 (Symberix, 2024)
